Data on three compounds can be found in ChEMBL document CHEMBL1177848, “Synthesis of novel 6,6a,7,8-tetrahydro-5H-naphtho[1,2-e]pyrimido[4,5-b][1,4]diazepines under microwave irradiation as potential anti-tumor agents” (2010).

The GI50 is the concentration that inhibits growth by half. Low readings indicate more potent growth inhibition, high ones less potent growth inhibition. In general, LC50 refers to the concentration that kills 50% of the test population.

One experiment deals with CCRF-CEM. Briefly: Growth inhibition of human CCRF-CEM cells after 48 hrs by sulforhodamine B assay. Format: functional.
The subject of another experiment is IGROV-1. Put plainly: Growth inhibition of human IGROV1 cells after 48 hrs by sulforhodamine B assay. Type of experiment: functional. The settings on record: IGROV-1, 48 h.
Experiment [1] concerns HCC 2998. Put plainly: Growth inhibition of human HCC2998 cells at 1 uM after 48 hrs by sulforhodamine B assay. Format: functional, cell-based.
A further experiment concerns UO-31. Briefly: Growth inhibition of human UO31 cells after 48 hrs by sulforhodamine B assay. Type of experiment: functional. The settings on record: UO-31, 48 h.
The next experiment has as its system SK-MEL-28. Put plainly: Growth inhibition of human SK-MEL-28 cells after 48 hrs by sulforhodamine B assay. Format: functional. As to conditions: SK-MEL-28, 48 h.
Another experiment relates to HOP-62. Put plainly: Growth inhibition of human HOP62 cells after 48 hrs by sulforhodamine B assay. Type of experiment: functional. The settings on record: HOP-62, 48 h.
The test system of another experiment is OVCAR-8. Put plainly: Growth inhibition of human OVCAR8 cells after 48 hrs by sulforhodamine B assay. Type of experiment: functional. As to conditions: OVCAR-8, 48 h. A general note: Sulforhodamine B stains cellular protein and so reports cell mass.
In a further experiment the test system is DU-145. Briefly: Growth inhibition of human DU145 cells after 48 hrs by sulforhodamine B assay. Type of experiment: functional. The settings on record: DU-145, 48 h.
The nature of experiment [2]: Growth inhibition of human SF530 cells after 48 hrs by sulforhodamine B assay. Format: functional. As to conditions: SF530, 48 h.
The next experiment has as its system 786-0. Put plainly: Growth inhibition of human 786-0 cells after 48 hrs by sulforhodamine B assay. Format: functional. The settings on record: 786-0, 48 h.
Another experiment concerns A549. Briefly: Growth inhibition of human A549 cells after 48 hrs by sulforhodamine B assay. The settings on record: A549, 48 h. Type of experiment: functional.
Experiment [3] has as its system HCC 2998. Put plainly: Growth inhibition of human HCC2998 cells after 48 hrs by sulforhodamine B assay. Type of experiment: functional. The settings on record: HCC 2998, 48 h.
The subject of a further experiment is M14. Put plainly: Growth inhibition of human M14 cells after 48 hrs by sulforhodamine B assay. Format: functional. The settings on record: M14, 48 h.
A further experiment relates to HL-60. Put plainly: Growth inhibition of human HL-60(TB) cells after 48 hrs by sulforhodamine B assay. The settings on record: HL-60, 48 h. Type of experiment: functional.
The next experiment deals with K562. Briefly: Growth inhibition of human K562 cells after 48 hrs by sulforhodamine B assay. Format: functional. The settings on record: K562, 48 h.
In a further experiment the test system is MOLT-4. Put plainly: Growth inhibition of human MOLT4 cells after 48 hrs by sulforhodamine B assay. Format: functional. As to conditions: MOLT-4, 48 h.
The next experiment has as its system UACC-257. Put plainly: Growth inhibition of human UACC257 cells at 1 uM after 48 hrs by sulforhodamine B assay. Format: functional, cell-based.
The test system of another experiment is SK-MEL-2. Briefly: Growth inhibition of human SK-MEL-2 cells after 48 hrs by sulforhodamine B assay. Type of experiment: functional. The settings on record: SK-MEL-2, 48 h.
In another experiment the test system is SF-268. Put plainly: Growth inhibition of human SF268 cells after 48 hrs by sulforhodamine B assay. Type of experiment: functional. The settings on record: SF-268, 48 h.
Another experiment concerns SNB-75. Put plainly: Growth inhibition of human SNB75 cells after 48 hrs by sulforhodamine B assay. As to conditions: SNB-75, 48 h. Type of experiment: functional.
Another experiment deals with Hs-578T. Briefly: Growth inhibition of human Hs 578T cells after 48 hrs by sulforhodamine B assay. Format: functional.
A further experiment deals with SF-539. Briefly: Growth inhibition of human SF539 cells after 48 hrs by sulforhodamine B assay. Format: functional. The settings on record: SF-539, 48 h; for CC50: read-out: LC50 (the source's name).
The next experiment concerns NCI-H322M. Put plainly: Growth inhibition of human […] cells after 48 hrs by sulforhodamine B assay. Format: functional.
The mark [4] stands for this setting: read-out: LC50 (the source's name).

Calls of active or inactive are those of the source. The rule behind the calls is not given here.

For the compound `Nc1nc(N)c2c(n1)NC(c1ccccc1)C1CCc3ccccc3C1=N2` (stereo not given), the GI50 in the experiment on CCRF-CEM was found to be 4.47 µM; in the experiment with IGROV-1 it was 4.45 µM; in the experiment on UO-31, 2.5 µM; in the experiment with SK-MEL-28, 7.72 µM; with HOP-62 it was 7.87 µM; in the experiment on OVCAR-8 it was 4.71 µM. Further, the GI50 with DU-145 came to 4.38 µM; in [2], 5.81 µM; in the experiment on 786-0, 5.99 µM; with A549, 7.11 µM; in the experiment on HCC 2998 [3], 3.82 µM; in the experiment on M14, 4.88 µM. The GI50 in the experiment with HL-60 worked out at 2.37 µM; in the experiment with K562, 3.42 µM; in the experiment with MOLT-4 it was 2.7 µM; in the experiment with SK-MEL-2 it was 3.48 µM; in the experiment on SF-268, 6.96 µM; in the experiment with SNB-75, 7.95 µM. Besides, it took 5.85 µM to inhibit growth in the experiment with Hs-578T by half (GI50). Moreover, the CC50 in the experiment on CCRF-CEM (setting [4]) was above 100 µM; in the experiment on SK-MEL-28 (setting [4]), 45.1 µM; in experiment [2] (setting [4]), 43.7 µM; in the experiment with A549 (setting [4]), 82.2 µM; in the experiment with M14 (setting [4]), 44.2 µM; with HL-60 (setting [4]) it was above 100 µM. Also, the CC50 is above 100 µM in the experiment on K562 (setting [4]); above 100 µM with MOLT-4 (setting [4]); 45.7 µM with SF-268 (setting [4]); 45.6 µM in the experiment with SNB-75 (setting [4]); above 100 µM in the experiment on Hs-578T (setting [4]). In addition, the LC50 (concentration killing 50% of cells) with IGROV-1 is 62.3 µM; with HOP-62, 49.7 µM; in the experiment with OVCAR-8 it was above 100 µM; with HCC 2998 [3], 41.2 µM. The “growth inhibition (GI)” value with HCC 2998 [1] and in the experiment on UACC-257 was “inactive” each time. Besides, the LC50 was 45 µM in the experiment with UO-31 and 43.6 µM with SK-MEL-2. The figures for the LC50 (50% lethal concentration) in the experiment on DU-145 and with 786-0 were 42.1 µM and 45.7 µM, respectively.

Consider `Nc1nc(N)c2c(n1)NC(c1ccc(Cl)cc1)C1CCc3ccccc3C1=N2` (stereo not given), for which, in the experiment on IGROV-1, the GI50 amounted to 6.16 µM and the LC50 (concentration killing 50% of cells) is 49.9 µM. Also, in the experiment with HCC 2998 [1], the “growth inhibition (GI)” value is “inactive”. In the experiment on UO-31, the GI50 was found to be 3.63 µM and the LC50 is 46.2 µM. For the same compound, in the experiment with SF-539, the GI50 came to 6.17 µM and the CC50 worked out at 44.3 µM. For the same compound, the “growth inhibition (GI)” value in the experiment with UACC-257 was “inactive”.

Regarding `Nc1nc(N)c2c(n1)NC(c1ccc(F)cc1)C1CCc3ccccc3C1=N2` (stereo not given), the GI50 in the experiment on IGROV-1 was found to be 7.79 µM; with UO-31, 3.34 µM; in the experiment with NCI-H322M, 9.63 µM; in the experiment on HOP-62 it was 6 µM; in the experiment on OVCAR-8 it was 8.07 µM; with SF-539, 1.71 µM. The GI50 in the experiment with DU-145 came out at 7.45 µM; in the experiment on 786-0, 6.9 µM; in the experiment with HCC 2998 [3], 2.44 µM; with SK-MEL-2, 5.73 µM. Further, the LC50 (concentration killing 50% of cells) in the experiment on IGROV-1 was 63.9 µM; with HOP-62, 51.6 µM; in the experiment on OVCAR-8, 80.7 µM; in the experiment on HCC 2998 [3], 24.3 µM. The “growth inhibition (GI)” value with HCC 2998 [1] and in the experiment with UACC-257 was “inactive” in each case. Moreover, the LC50 was 55.3 µM in the experiment on UO-31 and 50.2 µM in the experiment on SK-MEL-2. The CC50 in the experiment on NCI-H322M (setting [4]) turned out to be 48 µM; with SF-539, 32 µM. Moreover, the figures for the LC50 (50% lethal concentration) in the experiment on DU-145 and with 786-0 were 44.5 µM and 47.8 µM, respectively.
